Source: patent US6887896B1, “7-[(7-Alkoxy)-chrom-3-en-6-yl]-heptatrienoic acid and 7-[(3-alkoxy)-5,6-dihydronaphthalen-2-yl]-heptatrienoic acid derivatives having serum glucose reducing activity” (Allergan, Inc., priority 2003, dated 2005)

Key:
RXRβ [1] = target: T1, RXRβ (UniProt P28704); test: holoreceptor transactivation assay, RXRβ; format: cell-based; settings: for EC50: holoreceptor transactivation, read-out: RXR Trans. EC50 β; for RXR Trans. efficacy (number in parentheses) β: percentage compared to the standard compound
T1 sequence (P28704 1-520): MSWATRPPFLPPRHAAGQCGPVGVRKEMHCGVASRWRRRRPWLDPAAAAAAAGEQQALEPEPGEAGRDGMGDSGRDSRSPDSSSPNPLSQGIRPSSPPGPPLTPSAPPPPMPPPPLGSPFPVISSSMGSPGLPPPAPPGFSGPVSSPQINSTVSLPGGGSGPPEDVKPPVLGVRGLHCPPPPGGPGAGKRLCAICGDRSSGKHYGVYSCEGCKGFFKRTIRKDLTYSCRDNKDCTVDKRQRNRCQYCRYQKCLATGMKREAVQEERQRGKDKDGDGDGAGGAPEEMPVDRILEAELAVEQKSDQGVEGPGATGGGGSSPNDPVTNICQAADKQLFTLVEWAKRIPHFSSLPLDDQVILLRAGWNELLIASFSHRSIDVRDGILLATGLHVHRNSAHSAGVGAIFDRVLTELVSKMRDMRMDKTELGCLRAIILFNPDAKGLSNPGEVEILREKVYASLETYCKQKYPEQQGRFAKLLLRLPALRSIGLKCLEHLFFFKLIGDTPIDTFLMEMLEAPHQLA
Description: (§1) Specifically, one such assay is a chimeric receptor transactivation assay which tests for agonist-like activity in the R RAPE and RAR7 receptor subtypes, and which is based on work published by Feigner, P. L. and Holm, M (1989) Focus, 112 is described in detail in U.S. Pat. No. 5,455,265. The specification of U.S. Pat. No. 5,455,265 is hereby expressly incorporated by reference. A holoreceptor transactivation assay and a ligand binding assay which measure the antagonist/agonist like activity of the compounds of the invention, or their ability to bind to the several retinoid receptor subtypes, respectively, are described in published PCT Application No. WO WO93/11755 (particularly on pages 30-33 and 37-41) published on Jun. 24, 1993, the specification of which is also incorporated herein by reference. A detailed experimental procedure for holoreceptor transactivations has been described by Heyman et al. Cell 68, 397-406, (1992); Allegretto et al. J. Biol. Chem. 268, 26625-26633, and Mangelsdorf et al. The Retinoids: Biology, Chemistry and Medicine, pp 319-349, Raven Press Ltd., New York, which are expressly incorporated herein by reference. The results obtained in this assay are expressed in EC50 numbers, as they are also in the chimeric receptor transactivation assay. The results of the ligand binding assay are expressed in Ki numbers. (See Cheng et al. Biochemical Pharmacology Vol. 22 pp 3099-3108, expressly incorporated herein by reference.)
Efficacy in a transactivation assay is expressed as a percentage of the maximum potency attained by the compound compared to a standard which, in this case, is the compound named (2E,4E,1′S,2′S)-3-methyl-5-[2′-methyl-2′-(5,5,8,8-tetramethyl-5,6,7,8-tetrahydro-naphthalen-2-yl)-cyclopropyl]-penta-2,4-dienoic acid. This standard compound is described in U.S. Pat. No. 6,114,533.
The specification of this application for patent is organized in several sections in accordance with structural Formulas A through F each of which discloses a group of preferred compounds within the scope of the invention. Tables that disclose the activity of certain exemplary compounds of the invention in the above-described RXR receptor transactivation and binding assays are found in the corresponding sections. […] The transactivation data pertaining to the activation of RXR receptors were obtained in the holoreceptor assay.
(§2) Generally speaking, in the tables disclosing the results of transactivation and binding assays the numbers in parentheses indicate efficacy as a percentage compared to the standard compound, (2E,4E,1′S,2′S)-3-methyl-5-[2′-methyl-2′-(5,5,8,8-tetramethyl-5,6,7,8-tetrahydro-naphthalen-2-yl)cyclopropyl]-penta-2,4-dienoic acid and the other numbers indicate the measured EC50 and K; in nanomolar concentration.

RARγ = target: T2, RARγ (Homo sapiens, UniProt P13631); test: ligand binding assay, RARγ; settings: read-out: RAR Bind. Ki γ
T2 sequence (P13631 1-454): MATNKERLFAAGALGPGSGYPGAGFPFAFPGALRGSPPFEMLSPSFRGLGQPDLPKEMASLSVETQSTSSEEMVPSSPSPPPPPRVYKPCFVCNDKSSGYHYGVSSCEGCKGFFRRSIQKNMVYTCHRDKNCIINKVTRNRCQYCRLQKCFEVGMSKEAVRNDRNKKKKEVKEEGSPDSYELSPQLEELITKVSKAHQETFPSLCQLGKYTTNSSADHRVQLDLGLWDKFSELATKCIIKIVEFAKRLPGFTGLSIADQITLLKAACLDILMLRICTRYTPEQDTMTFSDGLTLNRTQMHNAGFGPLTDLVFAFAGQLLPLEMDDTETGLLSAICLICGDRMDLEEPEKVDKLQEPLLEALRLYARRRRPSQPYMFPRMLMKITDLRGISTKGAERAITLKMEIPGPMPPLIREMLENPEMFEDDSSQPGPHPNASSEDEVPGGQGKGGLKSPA
Description: as §1, §2

RXRα = target: T3, RXRα (Homo sapiens, UniProt P19793); test: ligand binding assay, RXRα; settings: read-out: RXR Bind Ki α
T3 construct: expressed in transfected cells
T3 sequence (P19793 1-462): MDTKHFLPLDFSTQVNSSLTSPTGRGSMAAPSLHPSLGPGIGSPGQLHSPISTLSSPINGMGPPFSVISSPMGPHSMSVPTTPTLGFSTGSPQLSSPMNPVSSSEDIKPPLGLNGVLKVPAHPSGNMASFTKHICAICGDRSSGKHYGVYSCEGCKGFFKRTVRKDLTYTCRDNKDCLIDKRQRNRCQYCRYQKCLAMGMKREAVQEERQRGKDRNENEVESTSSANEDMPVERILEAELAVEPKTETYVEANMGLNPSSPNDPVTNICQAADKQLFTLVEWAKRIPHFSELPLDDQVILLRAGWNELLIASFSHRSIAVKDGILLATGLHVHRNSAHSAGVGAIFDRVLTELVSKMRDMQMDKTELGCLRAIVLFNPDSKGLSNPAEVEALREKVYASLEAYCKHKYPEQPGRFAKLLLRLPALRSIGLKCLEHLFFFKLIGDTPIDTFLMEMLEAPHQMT
Description: as §1, §2

RXRβ [2] = target: T1, RXRβ; test: ligand binding assay, RXRβ; settings: read-out: RXR Bind Ki β
Description: as §1, §2

Structure (SMILES)	EC50 (RXRβ [1]) [nM]	Ki (RARγ) [µM]	Ki (RXRα) [nM]	Ki (RXRβ [2]) [nM]	RXR Trans. efficacy (number in parentheses) β (RXRβ [1]) [%]
CCC1=CC(C)(C)Oc2cc(OC)c(\C(C)=C(F)/C=C/C(C)=C/C(=O)O)cc21 [Compound 120, 7-(4Ethyl-7-methoxy-2,2-dimethyl-2H-chromen-6-yl)-6-fluoro-3-methyl-octa-2E,4E,6E-trienoic acid]	> 10000	> 10	277	2600	–
CC/C(=C(F)/C=C/C(C)=C/C(=O)O)c1cc2c(cc1OC)OC(C)(C)C=C2C [Compound 129, 6-Fluoro-7-(7-methoxy-2,2,4-trimethyl-2H-chromen-6-yl)-3-methyl-nona-2E,4E,6E-trienoic acid]	843	4.7	69	625	151
CCOc1cc2c(cc1\C(CC)=C(F)/C=C/C(C)=C/C(=O)O)C(C)=CC(C)(C)O2 [Compound 132, 7-(7-Ethoxy-2,2,4-trimethyl-2H-chromen-6-yl)-6-fluoro-3-methyl-nona-2E,4E,6E-trienoic acid]	> 10000	2.4	124	1100	–
CCOc1c(\C(C)=C(F)/C=C/C(C)=C/C(=O)O)cc2c(c1Cl)OC(C)(C)C=C2C(C)C [Compound 172, 7-(8-Chloro-4-isopropyl-7-ethoxy-2,2-dimethyl-2H-chromen-6-yl)-6-fluoro-3-methyl-octa-2E,4E,6E-trienoic acid]	52	1.4	10	85	45
CCOc1c(\C(CC)=C(F)/C=C/C(C)=C/C(=O)O)cc2c(c1Cl)OC(C)(C)C=C2C(C)C [Compound 173]	18	2.4	2	36	21
CCOc1cc2c(cc1\C(C)=C/C=C/C(C)=C/C(=O)O)C(C(C)(C)C)=CCC2(C)C [Compound A-17, 7-(8-tert-Butyl-3-ethyloxy-5,5-dimethyl-5,6-dihydronaphthalen-2-yl)-3-methyl-octa-2E,4E,6Z-trienoic acid]	3.2	1.9	2.4	16	72
CCOc1cc2c(cc1\C(=C/C=C/C(C)=C/C(=O)O)CC)C(C(C)(C)C)=CCC2(C)C [Compound A-18, 7-(8-tert-butyl-3-ethyoxy-5,5-dimethyl-5,6-dihydronaphthalen-2-yl)-3-methyl-nona-2E,4E,6Z-trienoic acid]	11	0.537	5	31	21

Continued by falling EC50 (RXRβ [1]), values first:

EC50 (RXRβ [1]) [nM]	Ki (RARγ) [µM]	Ki (RXRα) [nM]	Ki (RXRβ [2]) [nM]	RXR Trans. efficacy (number in parentheses) β (RXRβ [1]) [%]	Structure (SMILES)
527	3.4	29	319	12	CC(/C=C/C(F)=C(/C)c1cc2c(c(Cl)c1OC(C)C)OC(C)(C)C=C2C(C)C)=C\C(=O)O [Compound 174]
191	3.8	8.7	49	37	CCOc1cc2c(cc1\C(=C/C=C/C(C)=C/C(=O)O)CC)C(C)=CCC2(C)C [Compound A-16, 7-(3-Ethoxy-5,5,8-trimethyl-5,6-dihydronaphthalen-2-yl)-3-methyl-nona-2E,4E,6Z-trienoic acid]
64	3.3	10	94	47	CC/C(=C(F)/C=C/C(C)=C/C(=O)O)c1cc2c(cc1OC)OC(C)(C)C=C2C(C)(C)C [Compound 131, 7-(4-tert-Butyl-7-methoxy-2,2-dimethyl-2H-chromen-6-yl)-6-fluoro-3-methyl-nona-2E,4E,6E-trienoic acid]
51	8.8	7	33	72	COc1cc2c(cc1\C(C)=C(F)/C=C/C(C)=C/C(=O)O)C(C(C)C)=CC(C)(C)O2 [Compound 121, (2E,4E,6E)-6-Fluoro-7-(4-isopropyl-7-methoxy-2,2-dimethyl-2H-chromen-6-yl)-3-methyl-octa-2,4,6-trienoic acid]
35	3.9	11	110	61	COc1cc2c(cc1\C(C)=C(F)/C=C/C(C)=C/C(=O)O)C(C(C)(C)C)=CC(C)(C)O2 [Compound 122, 7-(4-tert-Butyl-7-methoxy-2,2-dimethyl-2H-chromen-6-yl)-6-fluoro-3-methyl-octa-2E,4E,6E-trienoic acid]
3.1	2.7	3	24	73	CC/C(=C(F)/C=C/C(C)=C/C(=O)O)c1cc2c(cc1OC)OC(C)(C)C=C2C(C)C [Compound 130, 6-Fluoro-7-(4-isopropyl-7-methoxy-2,2-dimethyl-2H-chromen-6-yl)-3-methyl-nona-2E,4E,6E-trienoic acid]
0.8	5.3	2	7	88	COc1c(\C(C)=C(F)/C=C/C(C)=C/C(=O)O)cc2c(c1Cl)OC(C)(C)C=C2C(C)C [Compound 170, 7-(8-Chloro-4-isopropyl-7-methoxy-2,2-dimethyl-2H-chromen-6-yl)-6-fluoro-3-methyl-octa-2E,4E,6E-trienoic acid]
0.2	4.9	1.3	12	85	CC/C(=C(F)/C=C/C(C)=C/C(=O)O)c1cc2c(c(Cl)c1OC)OC(C)(C)C=C2C(C)C [Compound 171, 7-(8-Chloro-4-isopropyl-7-methoxy-2,2-dimethyl-2H-chromen-6-yl)-6-fluoro-3-methyl-nona-2E,4E,6E-trienoic acid]
